The conditions of data set [1]: rat; cited from earlier work.
Data set [2] is described as follows: Sample stability of bile acid B in dried blood spots, whole blood, processed samples, stock and working solutions. In kind it is physicochemical. As to the method: Sample stability. The storage stability of dried blood spots and processed sample stabilities in the autosampler were determined at the LQC and HQC concentration levels (n=3). Storage stability of bile acid B in dried blood spots was tested at −20° C. and room temperature for 66 days, and at 37° C. for 90 hours. In the autosampler, stability was tested over seven days by injecting the first batch of the validation samples. The LQC and HQC in whole blood were placed on benchtop at room temperature for 27 hours and then spotted onto newborn screening cards to examine stability of bile acid B in whole blood. Stock solution stability was established by quantification of samples from dilution of two stock solutions that have been stored at −20° C. for 91 days and at room temperature on the bench for 22 hours, respectively, to the final solution (500 ng/mL in water). The storage stability of internal standard working solution was tested at room temperature for 12 days. A fresh standard curve was established each time. Bile acid B was stable in dried blood spots in newborn screening cards for up to 66 days at room temperature storage.
Stability in whole blood, dried blood spots, processed samples, stock and working solutions. The allowable time bile acid B spiked whole blood sample can remain at room temperature prior to spoiling on a newborn screening card was determined with LQC and HQC blood samples, which were remained at room temperature for 27 hours prior to spotting. Three replicates were assessed and the accuracy (within ±4.5% RE) and precision (<7.5% CV) were within the quality control acceptance criteria stated above. Bile acid B is therefore considered stable in whole blood for 27 hours prior to spotting.
The stability of bile acid B in dried blood spots on the newborn screening cards stored at room temperature and −20° C. for 66 days and at 37° C. for 90 hours was assessed by comparisons of three replicates of stored LQC and HQC against freshly prepared calibration standards and QC samples. […] Processed sample stability was assessed by re-injection of LQC and HQC together with calibration curve from one accuracy/precision run after storage in the autosampler at 4° C. for 7 days.
Stock solution stability of bile acid B and internal standard in acetonitrile-water (1:1) was established for 22 hours at room temperature. The internal standard in aqueous working solution (1% sodium dodecyl sulfate (SDS) and 50 mM trisodium citrate at pH 12) was stable for 12 days at room temperature.

Another data set has as its system Hep G2 cells. Briefly: Biosynthesis of bile acids from cholestane-3β,5α,6β-triol in Hep G2 cells. In kind it is in vitro ADME, human. As to conditions: 2.5 ng/mL, 24 h, conditioned medium. As to the method: To explore the biosynthetic route of the bile acids, the human hepatoblastoma-derived cell line Hep G2 was incubated with cholestane-3β,5α,6β-triol and 7,7,22,22,22-d4-cholestane-3β,5α,6β-triol. Hep G2 cells (1×10^6 cells/well) were seeded in a 6-well plate in triplicate and maintained in Dulbecco's modified Eagle's medium supplemented with 15% fetal calf serum and 100 U of penicillin G/mL and […] streptomycin sulfate at 37° C. in a humidified atmosphere with 5% CO2. Hep G2 cells were treated when they were 80% confluent. For the treatment, 100× stock solutions were made in DMSO for triol and d4-triol. DMSO concentration never exceeded 1% in the culture medium. […] The supernatant was transferred to a glass HPLC insert and analyzed immediately after preparation by the LC-MS/MS.
LC-MS/MS analysis was conducted on a Shimadzu (Columbia, Md.) Prominence UFLC system coupled with an Applied Biosystems/MDS Sciex (Ontario, Canada) 4000QTRAP mass spectrometer using multiple reaction monitoring (MRM). […] Data were acquired and analyzed by Analyst software (version 1.5.2). […] FIG. 40 depicts synthetic bile acid A detected by MRM transition m/z 407→407. FIG. 41 depicts bile acid A generated from cholestane-3β,5α,6β-triol in HepG2 cells and detected by MRM transition m/z 407→407. […]

Take `C[C@H](CCC(=O)O)[C@H]1CCC2C3C[C@@H](O)[C@@]4(O)C[C@@H](O)CC[C@]4(C)C3CC[C@@]21C` (stereo partly drawn) [Bile acid A, 3β,5α,6β-trihydroxycholanic acid]: the “metabolite of cholestane-3β,5α,6β-triol” value in data set [1] is “major metabolite”.

As for `C[C@H](CCC(=O)NCC(=O)O)[C@H]1CC[C@H]2[C@@H]3C[C@@H](O)[C@@]4(O)C[C@@H](O)CC[C@]4(C)[C@H]3CC[C@]12C` [Bile acid B, N-(3β,5α,6β-trihydroxy-cholan-24-oyl)glycine], the stock solution stability in data set [2] (acetonitrile-water (1:1), room temperature) is 22 h. For the same compound, the processed sample stability entry in data set [2] (autosampler at 4° C. for 7 days) is reported as “Stability was demonstrated”. The “stability in dried blood spots on newborn screening cards” value in data set [2] (room temperature) is “up to 66 days”; in data set [2] (room temperature, listed as bile acid B) it was “at least 66 days”; in data set [2] (shipping conditions (37° C.)) it was 90 h; in data set [2] (−20° C.), “at least 66 days”. The “stability in whole blood prior to spotting” value in data set [2] (room temperature, LQC and HQC) came to 27 h. Also, the “formation from cholestane-3β,5α,6β-triol or d4-triol” value with Hep G2 cells is given as “No bile acid B was found”.

Values taken from patent publication US10983112B2, “Bile acid biomarkers for Niemann-Pick diseases, methods and uses therefor” (Washington University, priority 2014, dated 2021).
